# Assay results from patent US8889677B2, “Substituted triazoles useful as mGlu5 receptor modulators” (Boehringer Ingellheim International GmbH, priority 2012, dated 2014).
# Target: T1, human recombinant mGluR5 (Homo sapiens, UniProt P41594)
# T1 construct: expressed in transfected cells; host or cells: HEK 293 cell line cultured with tetracycline, hygromycin and geneticin; tetracycline removed 3-7 days before the assay
# Assay: positive modulation of mGluR5, calcium based FLIPR assay in HEK 293 cells
# Details: HEK 293 cell line expressing human recombinant mGluR5; EC50 of the modulation of the glutamate response (glutamate approx. 5% basal stimulation); peak height of Ca release fluorescence signal
# Protocol: The positive modulation of mGluR5 is measured in a HEK 293 cell line expressing human recombinant mGluR5 and is detected with calcium based FLIPR assay. The cells are cultured with DMEM supplemented with 10% FCS, 2 μg/mL tetracycline, 100 μg/mL hygromycin and 500 μg/mL gneticin. The cell culture media is exchanged for tetracycline-free cell culture media 3-7 days before the assay. One day before the assay the cell culture medium is exchanged to DMEM without glutamine and phenol red and supplemented with 10% FCS, 100 μg/mL hygromycin and 500 μg/mL geneticin. On the assay day, the medium of the subconfluent cultures is removed and the cells are detached by addition of 2.5 ml EDTA (0.02%) per 175 cm2 culture flask for 1 minute. The cells are resuspend in Ringer solution (140 mM NaCl, 5 mM KCl, 2.5 mM CaCl2, 1.5 mM MgCl2, 5 mM Glucose, 10 mM Hepes; adjusted to pH 7.4 with NaOH), pooled and Ringer solution added to adjust the volume to 50 mL. The cell suspension is centrifuged for […] at 1500 U/min (425 g). The supernatant is removed and the cells washed a second time with 50 ml fresh Ringer solution and centrifuged again as before. The supernatant is again removed and the pellet resuspended in Ringer solution to 1,000,000 cells/ml (1×10^6 cells/mL). The cells are plated onto BD BioCoat Poly-D-Lysine 384 well plates (20.000 cells/well; 20 μl/well). The lid covered plates are then incubated until use at 37° C./10% CO2. For dye loading, 20 μl of Calcium-4 assay kit solution (prepared according to the manufacturer's description in Ringer solution) are added to the cells and the plates are incubated for 80 min 37° C. and then 10 min at room temperature.
# Controls, Compound Dilution and Assay Execution:
# Each assay plate contained wells with “high” and “low” controls:
# Low controls 1% DMSO/ringer solution+basal glutamate activation (defined as 100% CTL).
# High controls 10 μM CDPPB+basal glutamate activation (defined as 200% CTL).
# Test compounds are dissolved and diluted in DMSO to 100-fold the desired concentrations. In a second step, the compounds are diluted in Ringer solution such that the compounds are 4-fold more concentrated than the desired final assay concentration. The final DMSO concentration was 1%.
# 20 μl of each compound solution are then transferred to the assay plate and the Ca2+ kinetic is measured to determine any intrinsic compound activity. After 5 min incubation in the FLIPR device, the second stimulation with 20 μl of glutamate in Ringer solution (glutamate concentration adjusted to approximately 5% basal stimulation of the maximal possible glutamate effect) is added and the kinetic Ca2+ response of the wells was measured for the modulation effect.
# The peak height of the Ca release related fluorescence signal (9-66) is used for the EC50. The EC50 of the modulation is calculated over a nonlinear regression with GraphPad Prism (Table 1).
# T1 sequence (P41594 21-1212): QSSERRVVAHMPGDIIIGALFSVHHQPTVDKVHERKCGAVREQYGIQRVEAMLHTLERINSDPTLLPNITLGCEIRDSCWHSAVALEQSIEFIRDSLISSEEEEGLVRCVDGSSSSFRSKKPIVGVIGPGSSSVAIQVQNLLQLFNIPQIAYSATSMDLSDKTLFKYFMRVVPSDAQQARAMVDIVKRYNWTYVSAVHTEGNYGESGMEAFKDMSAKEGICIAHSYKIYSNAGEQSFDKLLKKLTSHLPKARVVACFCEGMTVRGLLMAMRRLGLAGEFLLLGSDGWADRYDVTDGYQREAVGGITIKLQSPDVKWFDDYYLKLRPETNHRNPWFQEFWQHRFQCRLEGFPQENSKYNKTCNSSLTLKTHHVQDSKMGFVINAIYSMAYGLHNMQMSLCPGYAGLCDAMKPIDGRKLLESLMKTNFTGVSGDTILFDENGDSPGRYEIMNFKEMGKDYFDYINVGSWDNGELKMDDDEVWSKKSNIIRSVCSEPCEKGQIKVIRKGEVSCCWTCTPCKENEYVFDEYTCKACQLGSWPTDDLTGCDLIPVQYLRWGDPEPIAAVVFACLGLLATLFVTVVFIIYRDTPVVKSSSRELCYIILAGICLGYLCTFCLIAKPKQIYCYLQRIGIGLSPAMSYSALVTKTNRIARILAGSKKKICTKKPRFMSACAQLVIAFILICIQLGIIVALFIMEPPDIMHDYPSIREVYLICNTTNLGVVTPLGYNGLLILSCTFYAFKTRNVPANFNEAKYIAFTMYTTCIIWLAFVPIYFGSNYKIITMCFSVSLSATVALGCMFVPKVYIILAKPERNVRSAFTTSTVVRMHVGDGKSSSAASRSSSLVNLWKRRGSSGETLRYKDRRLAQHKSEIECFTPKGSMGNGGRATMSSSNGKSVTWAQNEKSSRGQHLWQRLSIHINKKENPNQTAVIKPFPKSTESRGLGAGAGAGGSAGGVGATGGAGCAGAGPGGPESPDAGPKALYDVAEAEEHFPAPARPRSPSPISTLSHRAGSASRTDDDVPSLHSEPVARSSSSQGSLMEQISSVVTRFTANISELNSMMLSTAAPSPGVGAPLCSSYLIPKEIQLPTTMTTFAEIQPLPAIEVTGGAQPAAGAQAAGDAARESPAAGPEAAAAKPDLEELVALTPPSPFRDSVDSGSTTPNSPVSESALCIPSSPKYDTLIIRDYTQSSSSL
row,Compound,EC50 [nM]
1,COc1ccc(-c2nc(C3CCCCC3)n(CC(=O)N3CCN(c4cc(C)ccn4)CC3)n2)c(F)c1 [Example 07.04.021.],647
2,O=C(Cn1nc(-c2ccc(F)cc2)nc1C1CCCC1)N1CCN(c2ccccn2)CC1 [Example 07.04.047.],1380
3,CCC(C)c1nc(-c2ccc(F)c(C)c2)nn1CC(=O)N1CCN(c2cc(OC)ncn2)CC1 (stereo not shown) [Example 07.04.103.],748
4,Cc1ccnc(N2CCN(C(=O)Cn3nc(-c4ccc(F)c(C)c4)nc3C)CC2)c1 [Example 07.04.098.],738
5,COC[C@@H](C)Oc1cc(N2CCN(C(=O)Cn3nc(-c4ccc(F)cc4)nc3-c3ccc(F)cc3)CC2)ncn1 [Example 07.09.14.],38
6,COc1ccnc(N2CCN(C(=O)Cn3nc(-c4ccc(F)c(C)c4)nc3C3CCCCC3)CC2)c1 [Example 07.04.068.],246
7,O=C(Cn1nc(-c2ccc(F)cc2)nc1-c1ccc(F)cc1)N1CCN(c2cc(OCCN3CCNC3=O)ncn2)CC1 [Example 07.09.18.],103
8,CCOc1cccc(-c2nc(-c3ccccc3)n(CC(=O)N3CCN(c4ncccn4)CC3)n2)c1 [Example 07.10.04.],43
9,O=C(Cn1nc(-c2ccc(F)cc2)nc1-c1ccc(F)cc1)N1CCN(c2ccc(Cl)nn2)CC1 [Example 07.04.009.],166
10,CCCc1nc(-c2ccc(F)c(C)c2)nn1CC(=O)N1CCN(c2ncccn2)CC1 [Example 07.04.085.],379
11,"CN(C)c1cc(N2CCN(C(=O)Cn3nc(-c4ccc(F)cc4)nc3-c3ccc(F)cc3)CC2)ncn1 [Example 07.06.01., 2-(3,5-Bis-(4-fluoro-phenyl)-(1,2,4)triazol-1-yl)-1-(4-(6-dimethylamino-pyrimidin-4-yl)-piperazin-1-yl)-ethanone]",167
12,Cc1ccnc(N2CCN(C(=O)Cn3nc(-c4ccc(F)c(C)c4)nc3CCC(C)C)CC2)c1 [Example 07.04.121.],209
13,Cc1ccnc(N2CCN(C(=O)Cn3nc(-c4ccc(F)c(C)c4)nc3C(C)C)CC2)c1 [Example 07.04.090.],1160
14,COCCN1CCN(c2cc(N3CCN(C(=O)Cn4nc(-c5ccc(F)cc5)nc4-c4ccc(F)cc4)CC3)ncn2)CC1 [Example 07.08.10.],1030
15,O=C(Cn1nc(-c2ccc(F)cc2)nc1-c1ccc(F)cc1)N1CCN(c2cc(OC3CCOCC3)ncn2)CC1 [Example 07.09.21.],79
16,O=C(Cn1nc(-c2ccccc2)nc1C1=CCCC1)N1CCN(c2ncccn2)CC1 [Example 07.10.23.],459
17,O=C1CC(COc2cc(N3CCN(C(=O)Cn4nc(-c5ccc(F)cc5)nc4-c4ccc(F)cc4)CC3)ncn2)CN1 (stereo not shown) [Example 07.09.24.],101
18,COc1cccc(-c2nc(C3CCCCC3)n(CC(=O)N3CCN(c4ccccn4)CC3)n2)c1 [Example 07.04.053.],1150
19,O=C(Cn1nc(-c2ccc(F)cc2)nc1-c1ccc(F)cc1)N1CCN(c2cc3ccccc3cn2)CC1 [Example 07.04.005.],400
20,Cc1cc(-c2nc(-c3ccccc3)n(CC(=O)N3CCN(c4cccnn4)CC3)n2)ccc1F [Example 07.04.059.],160
21,Cc1ccc(-c2nc(-c3ccccc3)n(CC(=O)N3CCN(c4ncccn4)CC3)n2)cc1C [Example 07.10.15.],24
22,O=C(Cn1nc(-c2ccc(F)cc2)nc1-c1ccc(F)cc1)N1CCN(c2cc(OCc3ccccn3)ncn2)CC1 [Example 07.09.13.],47
23,COc1ccc(-c2nc(-c3ccc(OC)cc3)n(CC(=O)N3CCN(c4ccc(C)cn4)CC3)n2)cc1 [Example 07.02.11.],375
24,COc1cc(N2CCN(C(=O)Cn3nc(-c4cccc(C(C)C)c4)nc3-c3ccccc3)CC2)ncn1 [Example 07.10.34.],157
25,Cc1cc(-c2nc(C(C)C)n(CC(=O)N3CCN(c4ncccn4)CC3)n2)ccc1F [Example 07.04.089.],340
26,CCCCc1nc(-c2ccc(F)c(C)c2)nn1CC(=O)N1CCN(c2cc(OC)ncn2)CC1 [Example 07.04.119.],298
27,Cc1cc(-c2nc(-c3ccccc3)nn2CC(=O)N2CCN(c3ncccn3)CC2)ccc1F [Example 07.04.073.],87
28,Cc1ccc(-c2nc(-c3ccccc3)nn2CC(=O)N2CCN(c3ncccn3)CC2)cc1 [Example 07.10.22.],87

row,Compound,EC50 [nM]
1,O=C(Cn1nc(-c2ccc(F)cc2)nc1CCc1ccccc1)N1CCN(c2ncccn2)CC1 [Example 07.04.150.],323
2,COc1ccc(-c2nc(-c3ccc(F)cc3)n(CC(=O)N3CCN(c4cc(OC)ncn4)CC3)n2)cc1 [Example 07.04.034.],52
3,N#Cc1ccnc(N2CCN(C(=O)Cn3nc(-c4ccc(F)cc4)nc3-c3ccc(F)cc3)CC2)c1 [Example 07.02.08.],36
4,COc1ccc(-c2nc(-c3ccc(OC)cc3)n(CC(=O)N3CCN(c4ccc(C#N)cn4)CC3)n2)cc1 [Example 07.02.13.],1290
5,Cc1cc(-c2nc(C(C)C)n(CC(=O)N3CCN(c4ccccn4)CC3)n2)ccc1F [Example 07.04.087.],904
6,Cc1cc(-c2nc(C3CCCC3)n(CC(=O)N3CCN(c4ncccn4)CC3)n2)ccc1F [Example 07.04.111.],131
7,CCCCCc1nc(-c2ccc(F)c(C)c2)nn1CC(=O)N1CCN(c2cc(OC)ccn2)CC1 [Example 07.04.123.],92
8,Cc1cccc(-c2nc(-c3ccccc3)nn2CC(=O)N2CCN(c3ncccn3)CC2)c1 [Example 07.10.19.],233
9,COc1ccnc(N2CCN(C(=O)Cn3nc(-c4ccc(F)c(C)c4)nc3C3CCCC3)CC2)c1 [Example 07.04.110.],409
10,COCCN(C)c1cc(N2CCN(C(=O)Cn3nc(-c4ccc(F)cc4)nc3-c3ccc(F)cc3)CC2)ncn1 [Example 07.08.03.],238
11,Cc1ccnc(N2CCN(C(=O)Cn3nc(-c4ccc(F)c(C)c4)nc3C3CCC(C)CC3)CC2)c1 (stereo not shown) [Example 07.04.130.],848
12,Cc1cc(-c2nc(CCC(C)C)n(CC(=O)N3CCN(c4ncccn4)CC3)n2)ccc1F [Example 07.04.122.],140
13,COc1cc(-c2nc(-c3ccc(F)cc3)n(CC(=O)N3CCN(c4ccccn4)CC3)n2)ccc1F [Example 07.04.157.],36
14,Cc1ccnc(N2CCN(C(=O)Cn3nc(-c4ccc(F)cc4)nc3C3CCCC3)CC2)c1 [Example 07.04.048.],591
15,COc1ccc(-c2nc(-c3ccccc3)n(CC(=O)N3CCN(c4ncccc4C(F)(F)F)CC3)n2)cc1OC [Example 07.02.23.],1910
16,Cc1cc(C#N)nc(N2CCN(C(=O)Cn3nc(-c4ccc(F)cc4)nc3-c3ccc(F)cc3)CC2)n1 [Example 07.03.15.],574
17,O=C(Cn1nc(-c2ccc(F)cc2)nc1C1CCCCC1)N1CCN(c2ccccn2)CC1 [Example 07.04.029.],1560
18,COc1cccc(-c2nc(-c3ccc(F)cc3)n(CC(=O)N3CCN(c4ccccn4)CC3)n2)c1 [Example 07.04.049.],37
19,CCCc1nc(-c2ccc(F)c(C)c2)nn1CC(=O)N1CCN(c2cc(OC)ccn2)CC1 [Example 07.04.081.],353
20,O=C(Cn1nc(-c2ccc(F)cc2)nc1-c1ccc(F)cc1)N1CCN(c2ncc(Br)cn2)CC1 [Example 07.03.04.],50
21,CCCc1nc(-c2ccc(F)c(C)c2)nn1CC(=O)N1CCN(c2cc(C)ccn2)CC1 [Example 07.04.082.],306
22,COc1ccc(-c2nc(-c3ccccc3)n(CC(=O)N3CCN(c4cccc(OC)n4)CC3)n2)cc1 [Example 07.04.159.],282
23,COc1cc(N2CCN(C(=O)Cn3nc(-c4ccc(C)c(C)c4)nc3-c3ccccc3)CC2)ncn1 [Example 07.10.30.],50
24,CCCc1nc(-c2ccc(OC(F)F)cc2)nn1CC(=O)N1CCN(c2ccccn2)CC1 [Example 7.04.167],527
25,COc1ccc(-c2nc(-c3ccc(F)cc3)nn2CC(=O)N2CCN(c3cc(OC)ncn3)CC2)cc1 [Example 07.04.042.],148
26,CCCCCc1nc(-c2ccc(F)c(C)c2)nn1CC(=O)N1CCN(c2cc(OC)ncn2)CC1 [Example 07.04.126.],110
27,COc1ccnc(N2CCN(C(=O)Cn3nc(-c4ccc(F)c(C)c4)nc3C3CCCC(C)C3)CC2)c1 (stereo not shown) [Example 07.04.148.],918
